Literature values, collected in PMC10338470, “Phase 1 study of GSK3368715, a type I PRMT inhibitor, in patients with advanced solid tumors” (British Journal of Cancer, 2023).

System: adenoid cystic carcinoma
Set-up: method as in doi:10.1016/j.annonc.2020.08.651
Conditions: patients with adenoid cystic carcinoma ref [18]; cited from earlier work

SMILES: Nc1nc2cc(CC[C@H]3C[C@@H](n4ccc5c(N)ncnc54)[C@H](O)[C@@H]3O)ccc2cc1Br [JNJ64619178]
- Partial response rate: 13%
